Measured values reported in US10562909B2, “Fused quadracyclic compounds, compositions and uses thereof” (Tabomedex Biosciences, LLC, priority 2016, dated 2020).

Target: MAPKAPK2 (Homo sapiens, UniProt P49137)
Assay: MK2 Enzymatic Assay
Format: biochemical
Conditions: 0.5 nM MAPKAPK2, 3 μM ATP, 2 μM Ser/Thr4 peptide, 23° C., values given as concentration bins
Summary of the method: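 MAPKAPK2 (2× stock 1 nM) and peptide substrate (2× 4 μM) were preincubated 20 min, then started with ATP (2× stock 6 μM) for 120 min. After 120 min development, coumarin/fluorescein emission ratio gave percent phosphorylation against 0% and 100% phosphopeptide controls.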

Chain of MAPKAPK2 (P49137 whole entry, species assumed): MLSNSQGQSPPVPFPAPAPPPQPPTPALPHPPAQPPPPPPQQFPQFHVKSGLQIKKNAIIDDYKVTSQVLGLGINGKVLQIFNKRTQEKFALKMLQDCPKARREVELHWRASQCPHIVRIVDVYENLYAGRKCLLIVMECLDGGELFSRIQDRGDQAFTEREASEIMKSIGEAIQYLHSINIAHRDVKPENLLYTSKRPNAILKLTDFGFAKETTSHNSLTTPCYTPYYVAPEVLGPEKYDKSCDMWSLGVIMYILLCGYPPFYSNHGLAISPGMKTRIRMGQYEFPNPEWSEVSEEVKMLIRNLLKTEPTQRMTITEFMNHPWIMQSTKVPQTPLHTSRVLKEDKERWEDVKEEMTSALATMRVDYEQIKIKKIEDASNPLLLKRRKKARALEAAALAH

SMILES	IC50
C[C@@H](CO)NC[C@@H]1CCN(c2ccc3c(c2)Cn2cc(-c4ccc(C#N)cc4)cc2-c2nncn2-3)C1 [Compound 86, 4-(7-((S)-3-((((S)-1-hydroxypropan-2-yl)amino)methyl)pyrrolidin-1-yl)-9H-benzo[e]pyrrolo[1,2-a][1,2,4]triazolo[3,4-c][1,4]diazepin-12-yl)benzonitrile]	< 0.05 µM
NC[C@H]1CCN(c2ccc3c(c2)Cn2cc(-c4ccc(F)cc4)cc2-c2ncnn2-3)C1 [Compound 496, (R)-(1-(12-(4-fluorophenyl)-9H-benzo[e]pyrrolo[1,2-a][1,2,4]triazolo[5,1-c][1,4]diazepin-7-yl)pyrrolidin-3-yl)methanamine]	0.05 to 0.1 µM
CN[C@H]1CCN(c2ccc3c(c2)Cn2cc(-c4ccc(F)cc4)cc2-c2ncnn2-3)C1 [Compound 410, (S)-1-(12-(4-fluorophenyl)-9H-benzo[e]pyrrolo[1,2-a][1,2,4]triazolo[5,1-c][1,4]diazepin-7-yl)-N-methylpyrrolidin-3-amine]	0.05 to 0.1 µM
CN[C@H]1CCN(c2ccc3c(c2)Cn2c(cc(-c4ccc(C#N)cc4)c2Cl)-c2nncn2-3)C1 [Compound 167, (S)-4-(11-chloro-7-(3-(methylamino)pyrrolidin-1-yl)-9H-benzo[e]pyrrolo[1,2-a][1,2,4]tri-azolo[3,4-c][1,4]diazepin-12-yl)benzonitrile]	0.05 to 0.1 µM
CNC[C@@H]1CCN(c2ccc3c(c2)Cn2cc(-c4ccc(C#N)cc4)cc2-c2ncnn2-3)C1 [Compound 262, (S)-4-(7-(3-((methylamino)methyl)pyrrolidin-1-yl)-9H-benzo[e]pyrrolo[1,2-a][1,2,4]triazolo[5,1-c][1,4]diazepin-12-yl)benzonitrile]	< 0.05 µM
CNC[C@H]1CN(c2ccc3c(c2)Cn2cc(-c4ccc(C#N)cc4)cc2-c2nncn2-3)C[C@@H]1O (relative stereo) [Compound 72, 4-(7-(trans-3-hydroxy-4-((methylamino)methyl)pyrrolidin-1-yl)-9H-benzo[e]pyrrolo[1,2-a][1,2,4]triazolo[3,4-c][1,4]diazepin-12-yl)benzonitrile]	< 0.05 µM
CN(C)[C@@H]1CCN(c2ccc3c(c2)Cn2cc(-c4ccc(C#N)cc4)cc2-c2ncc(CN)n2-3)C1 [Compound 277, 4-(3-(aminomethyl)-7-((R)-3-(dimethylamino)pyrrolidin-1-yl)-9H-benzo[e]imidazo[2,1-c]pyrrolo[1,2-a][1,4]diazepin-12-yl)benzonitrile]	0.05 to 0.1 µM
N#Cc1ccc(-c2cc3n(c2)Cc2cc(N4C[C@@H](F)[C@@H](N)C4)ccc2-n2cnnc2-3)cc1 (racemic) [Compound 76, 4-(7-(cis-3-amino-4-fluoropyrrolidin-1-yl)-9H-benzo[e]pyrrolo[1,2-a][1,2,4]triazolo[3,4-c][1,4]diazepin-12-yl)benzonitrile]	< 0.05 µM
CN(C)[C@H]1CN(c2ccc3c(c2)Cn2cc(-c4ccc(F)cc4)cc2-c2ncnn2-3)C[C@@H]1O [Compound 418, (3S,4S)-4-(dimethylamino)-1-(12-(4-fluorophenyl)-9H-benzo[e]pyrrolo[1,2-a][1,2,4]triazolo[5,1-c][1,4]diazepin-7-yl)pyrrolidin-3-ol]	0.1 to 0.2 µM
CN(C)C[C@H]1CN(c2ccc3c(n2)Cn2cc(-c4ccc(C#N)cc4)cc2-c2nccn2-3)C[C@@H]1O [Compound 306, 4-(7-((3S,4R)-3-((dimethylamino)methyl)-4-hydroxypyrrolidin-1-yl)-9H-imidazo[2,1-c]pyrido[3,2-e]pyrrolo[1,2-a][1,4]diazepin-12-yl)benzonitrile]	< 0.05 µM
CNC[C@H]1CCN(c2ccc3c(c2)Cn2cc(-c4ccc(C#N)cc4)cc2-c2ncnn2-3)C1 [Compound 263, (R)-4-(7-(3-((methylamino)methyl)pyrrolidin-1-yl)-9H-benzo[e]pyrrolo[1,2-a][1,2,4]triazolo[5,1-c][1,4]diazepin-12-yl)benzonitrile]	0.1 to 0.2 µM
N#Cc1ccc(-c2cc3n(c2)Cc2cc(N4CCC5(CNC5)C4)ncc2-n2cnnc2-3)cc1 [Compound 318, 4-(7-(2,6-diazaspiro[3.4]octan-6-yl)-9H-pyrido[3,4-e]pyrrolo[1,2-a][1,2,4]triazolo[3,4-c][1,4]diazepin-12-yl)benzonitrile]	0.1 to 0.2 µM
CN(C)[C@H]1CN(c2ccc3c(n2)Cn2cc(-c4ccc(C#N)cc4)cc2-c2nccn2-3)C[C@H]1O [Compound 302, 4-(7-((3S,4R)-3-(dimethylamino)-4-hydroxypyrrolidin-1-yl)-9H-imidazo[2,1-c]pyrido[3,2-e]pyrrolo[1,2-a][1,4]diazepin-12-yl)benzonitrile]	0.05 to 0.1 µM
CNCC1CN(c2ccc3c(c2)Cn2cc(-c4ccc(C#N)cc4)cc2-c2nncn2-3)C1 [Compound 11, 4-(7-(3-((methylamino)methyl)azetidin-1-yl)-9H-benzo[e]pyrrolo[1,2-a][1,2,4]triazolo[3,4-c][1,4]diazepin-12-yl)benzonitrile]	0.05 to 0.1 µM
CN[C@@H]1CCN(c2ccc3c(c2)Cn2c(cc(-c4ccc(C#N)cc4)c2Cl)-c2nncn2-3)C1 [Compound 166, (R)-4-(11-chloro-7-(3-(methylamino)pyrrolidin-1-yl)-9H-benzo[e]pyrrolo[1,2-a][1,2,4]tri-azolo[3,4-c][1,4]diazepin-12-yl)benzonitrile]	0.1 to 0.2 µM

Results, then the molecule that gave them:

IC50	SMILES
< 0.05 µM	CNC[C@@H]1CCN(c2ccc3c(c2)Cn2cc(-c4ccc(F)cc4)cc2-c2nccn2-3)C1 [Compound 347, (S)-1-(1-(12-(4-fluorophenyl)-9H-benzo[e]imidazo[2,1-c]pyrrolo[1,2-a][1,4]diazepin-7-yl)pyrrolidin-3-yl)-N-methylmethanamine]
< 0.05 µM	CN[C@@H]1CN(c2ccc3c(c2)Cn2cc(-c4ccc(F)cc4)cc2-c2nccn2-3)C[C@H]1CO (relative stereo) [Compound 491, ((Trans)-1-(12-(4-fluorophenyl)-9H-benzo[e]imidazo[2,1-c]pyrrolo[1,2-a][1,4]diazepin-7-yl)-4-(methylamino)pyrrolidin-3-yl)methanol]
< 0.05 µM	Fc1ccc(-c2cc3n(c2)Cc2cc(N4CC5(CCCNC5)C4)ccc2-n2ccnc2-3)cc1 [Compound 377, 12-(4-fluorophenyl)-7-(2,6-diazaspiro[3.5]nonan-2-yl)-9H-benzo[e]imidazo[2,1-c]pyrrolo[1,2-a][1,4]diazepine]
0.1 to 0.2 µM	OC[C@@H]1CNC[C@H]1Nc1ccc2c(c1)Cn1cc(-c3ccc(F)cc3)cc1-c1nccn1-2 (relative stereo) [Compound 495, (Trans-4-((12-(4-fluorophenyl)-9H-benzo[e]imidazo[2,1-c]pyrrolo[1,2-a][1,4]diazepin-7-yl)amino)pyrrolidin-3-yl)methanol]
< 0.05 µM	CC(C)(CO)NC[C@@H]1CCN(c2ccc3c(c2)Cn2cc(-c4ccc(F)cc4)cc2-c2nccn2-3)C1 [Compound 360, (S)-2-(((1-(12-(4-fluorophenyl)-9H-benzo[e]imidazo[2,1-c]pyrrolo[1,2-a][1,4]diazepin-7-yl)pyrrolidin-3-yl)methyl)amino)-2-methylpropan-1-ol]
< 0.05 µM	C[C@H](CO)NC[C@@H]1CCN(c2ccc3c(c2)Cn2cc(-c4ccc(F)cc4)cc2-c2nccn2-3)C1 [Compound 354, (R)-2-((((S)-1-(12-(4-fluorophenyl)-9H-benzo[e]imidazo[2,1-c]pyrrolo[1,2-a][1,4]diazepin-7-yl)pyrrolidin-3-yl)methyl)amino)propan-1-ol]
< 0.05 µM	NCCC1CCN(c2ccc3c(c2)Cn2cc(-c4ccc(F)cc4)cc2-c2nccn2-3)C1 (centres unmarked) [Compound 486, 2-(1-(12-(4-fluorophenyl)-9H-benzo[e]imidazo[2,1-c]pyrrolo[1,2-a][1,4]diazepin-7-yl)pyrrolidin-3-yl)ethanamine]
< 0.05 µM	CCN1CC2(CCN(c3ccc4c(c3)Cn3cc(-c5ccc(F)cc5)cc3-c3nccn3-4)C2)C1 [Compound 367, 7-(2-ethyl-2,6-diazaspiro[3.4]octan-6-yl)-12-(4-fluorophenyl)-9H-benzo[e]imidazo[2,1-c] pyrrolo[1,2-a][1,4]diazepine]
< 0.05 µM	O[C@@H]1CN(c2ccc3c(c2)Cn2cc(-c4ccc(F)cc4)cc2-c2nccn2-3)C[C@H]1CN1CCCC1 (relative stereo) [Compound 472, (Trans)-1-(12-(4-fluorophenyl)-9H-benzo[e]imidazo[2,1-c]pyrrolo[1,2-a][1,4]diazepin-7-yl)-4-(pyrrolidin-1-ylmethyl)pyrrolidin-3-ol]
< 0.05 µM	CN(C)[C@@H]1CCN(c2ccc3c(c2)Cn2cc(-c4ccc(F)cc4)cc2-c2nccn2-3)C1 [Compound 379, (R)-1-(12-(4-fluorophenyl)-9H-benzo[e]imidazo[2,1-c]pyrrolo[1,2-a][1,4]diazepin-7-yl)-N,N-dimethylpyrrolidin-3-amine]
0.1 to 0.2 µM	O=C(O)CN1CC2(CCN(c3ccc4c(c3)Cn3cc(-c5ccc(F)cc5)cc3-c3nccn3-4)C2)C1 [Compound 478, 2-(6-(12-(4-fluorophenyl)-9H-benzo[e]imidazo[2,1-c]pyrrolo[1,2-a][1,4]diazepin-7-yl)-2,6-diazaspiro[3.4]octan-2-yl)acetic acid]
< 0.05 µM	CN(C)[C@H]1CN(c2ccc3c(c2)Cn2cc(-c4ccc(C#N)cc4)cc2-c2nccn2-3)C[C@H]1O [Compound 133, 4-(7-((3S,4R)-3-(dimethylamino)-4-hydroxypyrrolidin-1-yl)-9H-benzo[e]imidazo[2,1-c]pyrrolo[1,2-a][1,4]diazepin-12-yl)benzonitrile]
0.05 to 0.1 µM	O=C(O)C1CCN(CC2CCN(c3ccc4c(c3)Cn3cc(-c5ccc(F)cc5)cc3-c3nccn3-4)C2)CC1 (centres unmarked) [Compound 480, 1-((1-(12-(4-fluorophenyl)-9H-benzo[e]imidazo[2,1-c]pyrrolo[1,2-a][1,4]diazepin-7-yl)pyrrolidin-3-yl)methyl)piperidine-4-carboxylic acid]
< 0.05 µM	CN1CC2(CCN(c3ccc4c(c3)Cn3cc(-c5ccc(F)cc5)cc3-c3ncnn3-4)C2)C1 [Compound 412, 12-(4-fluorophenyl)-7-(2-methyl-2,6-diazaspiro[3.4]octan-6-yl)-9H-benzo[e]pyrrolo[1,2-a][1,2,4]triazolo[5,1-c][1,4]diazepine]
